Test results as given in PubChem BioAssay (NCI).
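Five concentrations, 48 hours, 96-well plates. Here, GI50 denotes the concentration required for 50% inhibition of growth. TGI denotes the concentration required for complete inhibition of growth.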

Experiments:
Test in all cases: NCI anticancer screen, dose series, 48 h
M14 melanoma = system: M14 melanoma
LOX IMVI melanoma = system: LOX IMVI melanoma
SF-295 CNS = system: SF-295 CNS
DU-145 prostate = system: DU-145 prostate
SK-MEL-2 melanoma = system: SK-MEL-2 melanoma
OVCAR-4 ovarian = system: OVCAR-4 ovarian
RXF 393 renal = system: RXF 393 renal
HCT-116 colon = system: HCT-116 colon
HOP-62 NSCLC = system: HOP-62 NSCLC
ACHN renal = system: ACHN renal
NCI-H23 lung = system: NCI-H23 lung
U251 CNS = system: U251 CNS
MALME-3M melanoma = system: MALME-3M melanoma
786-0 renal = system: 786-0 renal
HT29 colon = system: HT29 colon
IGROV1 ovarian = system: IGROV1 ovarian
HOP-92 NSCLC = system: HOP-92 NSCLC
NCI-H522 lung = system: NCI-H522 lung
HL-60(TB) leukemia = system: HL-60(TB) leukemia
COLO 205 colon = system: COLO 205 colon
HCT-15 colon = system: HCT-15 colon
UO-31 renal = system: UO-31 renal
MDA-MB-435 = system: MDA-MB-435
SN12C renal = system: SN12C renal
NCI-H226 lung = system: NCI-H226 lung
UACC-62 melanoma = system: UACC-62 melanoma
MDA-MB-231 breast = system: MDA-MB-231 breast
SF-268 CNS = system: SF-268 CNS
SK-MEL-5 melanoma = system: SK-MEL-5 melanoma
MOLT-4 leukemia = system: MOLT-4 leukemia
OVCAR-5 ovarian = system: OVCAR-5 ovarian
A498 renal = system: A498 renal
UACC-257 melanoma = system: UACC-257 melanoma
KM12 colon = system: KM12 colon
OVCAR-8 ovarian = system: OVCAR-8 ovarian
SNB-19 CNS = system: SNB-19 CNS
RPMI-8226 leukemia = system: RPMI-8226 leukemia
T-47D breast = system: T-47D breast
HCC-2998 colon = system: HCC-2998 colon
OVCAR-3 ovarian = system: OVCAR-3 ovarian
CAKI-1 renal = system: CAKI-1 renal
HS 578T breast = system: HS 578T breast
NCI-H460 lung = system: NCI-H460 lung
CCRF-CEM leukemia = system: CCRF-CEM leukemia
A549 NSCLC = system: A549 NSCLC
SNB-75 CNS = system: SNB-75 CNS
EKVX NSCLC = system: EKVX NSCLC
SK-OV-3 ovarian = system: SK-OV-3 ovarian
SF-539 CNS = system: SF-539 CNS
TK-10 renal = system: TK-10 renal
SR leukemia = system: SR leukemia
MCF7 breast = system: MCF7 breast
BT-549 breast = system: BT-549 breast
SW-620 colon = system: SW-620 colon
PC-3 prostate = system: PC-3 prostate

COc1ccc(NC(=O)c2sc3nc(C)c(C(=O)/C=C/c4ccccc4)cc3c2N)cc1
GI50 (M14 melanoma): 1750 nM | TGI (M14 melanoma): 10300 nM | GI50 (LOX IMVI melanoma): 863 nM | TGI (LOX IMVI melanoma): 1610 nM | GI50 (SF-295 CNS): 1870 nM | TGI (SF-295 CNS): 9200 nM | GI50 (DU-145 prostate): 1300 nM | TGI (DU-145 prostate): 3720 nM | GI50 (SK-MEL-2 melanoma): 3780 nM | TGI (SK-MEL-2 melanoma): 17500 nM | GI50 (OVCAR-4 ovarian): 4430 nM | TGI (OVCAR-4 ovarian): > 50000 nM | GI50 (RXF 393 renal): 820 nM | TGI (RXF 393 renal): 1620 nM | GI50 (HCT-116 colon): 849 nM | TGI (HCT-116 colon): 1780 nM | GI50 (HOP-62 NSCLC): 1260 nM | TGI (HOP-62 NSCLC): 3160 nM | GI50 (ACHN renal): 888 nM | TGI (ACHN renal): 1740 nM | GI50 (NCI-H23 lung): 1570 nM | TGI (NCI-H23 lung): 6090 nM | GI50 (U251 CNS): 889 nM | TGI (U251 CNS): 1680 nM | GI50 (MALME-3M melanoma): 1930 nM | TGI (MALME-3M melanoma): 21600 nM | GI50 (786-0 renal): 821 nM | TGI (786-0 renal): 1670 nM | GI50 (HT29 colon): 883 nM | TGI (HT29 colon): 1940 nM | GI50 (IGROV1 ovarian): 859 nM | TGI (IGROV1 ovarian): 2090 nM | GI50 (HOP-92 NSCLC): 1390 nM | TGI (HOP-92 NSCLC): 6650 nM | GI50 (NCI-H522 lung): 943 nM | TGI (NCI-H522 lung): 2420 nM | GI50 (HL-60(TB) leukemia): 971 nM | TGI (HL-60(TB) leukemia): 2500 nM | GI50 (COLO 205 colon): 1430 nM | TGI (COLO 205 colon): 5180 nM | GI50 (HCT-15 colon): 892 nM | TGI (HCT-15 colon): 2070 nM | GI50 (UO-31 renal): 748 nM | TGI (UO-31 renal): 1440 nM | GI50 (MDA-MB-435): 1040 nM | TGI (MDA-MB-435): 2960 nM | GI50 (SN12C renal): 1100 nM | TGI (SN12C renal): 2850 nM | GI50 (NCI-H226 lung): 1110 nM | TGI (NCI-H226 lung): 2870 nM | GI50 (UACC-62 melanoma): 934 nM | TGI (UACC-62 melanoma): 1960 nM | GI50 (MDA-MB-231 breast): 1760 nM | TGI (MDA-MB-231 breast): 12600 nM | GI50 (SF-268 CNS): 1570 nM | TGI (SF-268 CNS): 5930 nM | GI50 (SK-MEL-5 melanoma): 2030 nM | TGI (SK-MEL-5 melanoma): 7220 nM | GI50 (MOLT-4 leukemia): 1430 nM | TGI (MOLT-4 leukemia): > 50000 nM | GI50 (OVCAR-5 ovarian): 1110 nM | TGI (OVCAR-5 ovarian): 3260 nM | GI50 (A498 renal): 890 nM | TGI (A498 renal): 3220 nM | GI50 (UACC-257 melanoma): 1190 nM | TGI (UACC-257 melanoma): 3560 nM | GI50 (KM12 colon): 897 nM | TGI (KM12 colon): 1870 nM | GI50 (OVCAR-8 ovarian): 1420 nM | TGI (OVCAR-8 ovarian): 5220 nM | GI50 (SNB-19 CNS): 1300 nM | TGI (SNB-19 CNS): 4020 nM | GI50 (RPMI-8226 leukemia): 860 nM | TGI (RPMI-8226 leukemia): 2740 nM | GI50 (T-47D breast): 1250 nM | TGI (T-47D breast): 4370 nM | GI50 (HCC-2998 colon): 901 nM | TGI (HCC-2998 colon): 1760 nM | GI50 (OVCAR-3 ovarian): 1090 nM | TGI (OVCAR-3 ovarian): 2730 nM | GI50 (CAKI-1 renal): 953 nM | TGI (CAKI-1 renal): 1820 nM | GI50 (HS 578T breast): 2050 nM | TGI (HS 578T breast): > 50000 nM | GI50 (NCI-H460 lung): 931 nM | TGI (NCI-H460 lung): 2080 nM | GI50 (CCRF-CEM leukemia): 1260 nM | TGI (CCRF-CEM leukemia): 9940 nM | GI50 (A549 NSCLC): 749 nM | TGI (A549 NSCLC): 2130 nM | GI50 (SNB-75 CNS): 1220 nM | TGI (SNB-75 CNS): 3530 nM | GI50 (EKVX NSCLC): 1620 nM | TGI (EKVX NSCLC): 8850 nM | GI50 (SK-OV-3 ovarian): 3330 nM | TGI (SK-OV-3 ovarian): 12700 nM | GI50 (SF-539 CNS): 951 nM | TGI (SF-539 CNS): 1840 nM | GI50 (TK-10 renal): 1350 nM | TGI (TK-10 renal): 3590 nM | GI50 (SR leukemia): 1070 nM | TGI (SR leukemia): 4000 nM | GI50 (MCF7 breast): 815 nM | TGI (MCF7 breast): 6000 nM | GI50 (BT-549 breast): 938 nM | TGI (BT-549 breast): 2230 nM | GI50 (SW-620 colon): 966 nM | TGI (SW-620 colon): 2240 nM | GI50 (PC-3 prostate): 1250 nM | TGI (PC-3 prostate): 3890 nM
